{"source": "patent US10745393B2", "about": "“Small molecular probes, processes and use thereof” (JAWAHARLAL NEHRU CENTRE FOR ADVANCED SCIENTIFIC RESEARCH, priority 2014, dated 2020)", "key": {"calf thymus DNA": {"test_system": "calf thymus DNA", "assay": "Selectivity of QC: fluorescence with calf thymus DNA", "type": "binding", "details": "QC 2 μM, DNA 20 μM", "description": "Selective fluorescence enhancement is shown by QC probe, with strong binding affinity. Probe QC has very good lipophilicity to cross the BBB and serum stability. QC detects Aβ plaques in CSF samples of patient which can be used in early diagnosis of Alzheimer's Disease. Probe QC is a molecular rotor moiety containing an electron withdrawing group in conjugation with an electron releasing group with a freely rotatable bond. Prevention of internal rotation in QC by surrounding medium rigidity, leads to a decrease in the non-radiative decay rate and an increase in fluorescence emission. […] In presence of Aβ42 aggregates (10 μM) prepared in PBS buffer (10 mM), absorption maxima at 521 nm (λex) and a blue shifted emission maxima (10 nm) with huge (>100 fold) fluorescence enhancement ([…]=654 nm) and a large stoke shift of ˜130 nm is observed (FIG. 47). […] These peptides are known to form fibrillar aggregates similar to Aβ42 aggregates. […] No such changes are observed in case of IAPP aggregates."}, "[1]": {"assay": "Absorption, emission and quantum yield of probes without Aβ42 aggregates", "type": "physicochemical"}, "[2]": {"target": "ThT/Aβ42 aggregate complex (Homo sapiens, UniProt P05067)", "sequence (P05067 672-713 limits assumed, one chain of several)": "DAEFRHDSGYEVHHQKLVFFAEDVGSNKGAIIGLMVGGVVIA", "assay": "ThT displacement / FRET assay", "type": "binding", "details": "decay at 483 nm, enhancement at 654 nm"}, "[3]": {"target": "α-Synuclein (α-Syn) aggregates (Homo sapiens, UniProt P37840)", "assay": "Selectivity: fluorescence with α-synuclein aggregates", "type": "binding"}, "[4]": {"target": "bovine serum albumin (BSA) (Bos taurus, UniProt P02769)", "sequence (P02769 25-607)": "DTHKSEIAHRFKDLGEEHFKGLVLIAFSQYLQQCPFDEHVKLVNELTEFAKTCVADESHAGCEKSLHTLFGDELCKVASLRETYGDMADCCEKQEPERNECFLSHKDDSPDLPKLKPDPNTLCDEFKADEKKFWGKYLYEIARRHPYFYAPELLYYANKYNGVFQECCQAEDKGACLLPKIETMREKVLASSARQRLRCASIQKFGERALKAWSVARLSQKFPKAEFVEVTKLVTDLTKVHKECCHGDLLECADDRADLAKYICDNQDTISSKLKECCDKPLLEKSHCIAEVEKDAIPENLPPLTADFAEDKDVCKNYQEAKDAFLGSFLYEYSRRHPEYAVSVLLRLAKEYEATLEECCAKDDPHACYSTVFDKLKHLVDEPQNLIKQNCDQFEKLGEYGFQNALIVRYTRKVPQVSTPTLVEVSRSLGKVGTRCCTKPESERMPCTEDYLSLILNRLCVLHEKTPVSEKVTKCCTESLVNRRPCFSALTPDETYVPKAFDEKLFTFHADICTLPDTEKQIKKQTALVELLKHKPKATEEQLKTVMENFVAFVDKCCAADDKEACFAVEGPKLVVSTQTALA", "assay": "Selectivity: fluorescence with BSA", "type": "binding"}, "[5]": {"test_system": "Aβ plaques in CSF samples", "assay": "Detection of amyloid plaques in CSF samples by fluorescence", "details": "QC 10 μM", "experimental": "In the present experiment, Amyloid plaques in the CSF sample are detected as it is a hallmark of AD using ThT and QC. […] QC (10 μM) is used to detect Aβ plaques in the same set of CSF samples, which show the same trend as Thioflavin assay and stains CSF3, CSF5, CSF6 and CSF12 samples (FIG. 57 and table 6)."}, "[6]": {"test_system": "α-synuclein (A30P) aggregates expressed in S. cerevisiae (BY4741)", "type": "cell-based", "details": "QC 5 μM"}, "Aβ42 aggregates [7]": {"target": "T1, Aβ42 aggregates (Homo sapiens, UniProt P05067)", "T1 sequence (P05067 672-713 limits assumed)": "as the sequence (P05067 672-713 limits assumed, one chain of several) above", "assay": "Absorption / fluorescence response with Aβ42 fibrillar aggregates", "type": "binding"}, "[8]": {"assay": "Partition coefficient (Log P), shake flask method", "type": "physicochemical", "details": "n-octanol/water", "experimental": "Log P value is calculated by Shake flask (or tube) method. To an equilibrated solution of n-octanol and water in a separating funnel, probe QC/TC is added and agitated well. The solution is left for 30 minutes for proper separation of immiscible solvents, then the distribution of QC/TC is calculated using UV spectroscopy and the obtained concentrations are used in below equation to obtain log P value log P=log [Conc. of QC or TC in n-octanol/Conc. of QC or TC in water]"}, "Aβ42 aggregates [9]": {"target": "T1, Aβ42 aggregates", "assay": "Binding saturation assay (fluorescence) for binding constant", "details": "fluorescence saturation curve; Aβ42 aggregates 10 μM (QC) or 2 μM (TC); read-out: dissociation constant Kd"}, "Aβ42 monomers": {"target": "Aβ42 monomers (Homo sapiens, UniProt P05067)", "sequence (P05067 672-713 limits assumed)": "as the sequence (P05067 672-713 limits assumed, one chain of several) above", "assay": "Absorption / fluorescence response with Aβ monomers", "type": "binding", "details": "QC 2 μM, Aβ monomers 10 μM"}, "[10]": {"test_system": "Aβ42 aggregates expressed in S. cerevisiae (BY4741)", "type": "cell-based"}, "[11]": {"target": "T2, islet amyloid polypeptide (IAPP) aggregates (Homo sapiens, UniProt P10997)", "T2 construct": "A 0.1 mg (Merck, calbiochem) sample of amylin is dissolved in 100 μL of acetonitrile; purchased Merck, calbiochem", "T2 sequence (P10997 34-70 limits assumed)": "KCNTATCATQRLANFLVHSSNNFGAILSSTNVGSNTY", "assay": "Selectivity: fluorescence with IAPP aggregates", "type": "binding", "details": "IAPP aggregates 20 μM"}, "[12]": {"assay": "In vitro stability in human blood serum (HPLC)", "type": "in vitro ADME", "details": "60 min incubation with human blood serum at 37° C.", "experimental": "The in vitro stability of QC in […] is determined by incubating QC (10 μM in H2O, 50 μM) with 300 μL of human blood serum at 37° C. for 30 and 60 min. Proteins are precipitated by adding 500 μL of acetonitrile […] at 5000 rpm for 5 min at 4° C. The supernatant is collected. Approximately 0.1 mL of the supernatant solution is analyzed using HPLC."}, "[13]": {"details": "cresyl violet perchlorate standard"}}, "data": [{"molecule": "CCN(CC)c1ccc2cc(/C=C/c3ccc4ccccc4[n+]3C)c(=O)oc2c1.[I-]", "note": "[QC, 2-(2-(7-(diethylamino)-2-oxo-2H-chromen-3-yl)vinyl)-1-methylquinolin-1-ium Iodide]", "values": [{"measurement": "fluorescence enhancement with calf thymus DNA", "setting": "calf thymus DNA", "result": "slight fluorescence enhancement"}, {"measurement": "absorption maximum in absence of Aβ42 aggregates", "setting": "[1]; PBS buffer (10 mM, pH 7.4)", "result": 516, "unit": "nm"}, {"measurement": "emission maximum in absence of Aβ42 aggregates", "setting": "[1]; PBS buffer, very weak fluorescence", "result": 664, "unit": "nm"}, {"measurement": "quantum yield, unbound", "setting": "[1]; [13]", "result": 0.08}, {"measurement": "displacement of ThT from ThT/Aβ42 aggregate complex", "setting": "[2]", "result": "effective displacement of ThT by QC"}, {"measurement": "blue shift of λem maxima with α-Syn aggregates", "setting": "[3]; QC 2 μM, α-Syn 20 μM", "result": "~9", "unit": "nm"}, {"measurement": "fluorescence enhancement with α-Syn aggregates", "setting": "[3]; α-Syn aggregates 20 μM", "result": "negligible enhancement in fluorescence"}, {"measurement": "fluorescence enhancement with BSA", "setting": "[4]; BSA 20 μM", "result": "considerable fluorescence enhancement is not observed"}, {"measurement": "shift of emission with BSA", "setting": "[4]; QC 2 μM", "result": "~34", "unit": "nm"}, {"measurement": "λem with BSA", "setting": "[4]; QC 2 μM", "result": 616, "unit": "nm"}, {"measurement": "Normalized fluorescence intensity (QC)", "setting": "[5]; sample CSF1", "result": 12.50}, {"measurement": "Normalized fluorescence intensity (QC)", "setting": "[5]; sample CSF2", "result": 3.24}, {"measurement": "Normalized fluorescence intensity (QC)", "setting": "[5]; sample CSF3", "result": 29.60}, {"measurement": "Normalized fluorescence intensity (QC)", "setting": "[5]; sample CSF4", "result": 10.70}, {"measurement": "Normalized fluorescence intensity (QC)", "setting": "[5]; sample CSF5", "result": 51.50}, {"measurement": "Normalized fluorescence intensity (QC)", "setting": "[5]; sample CSF6", "result": 29.60}, {"measurement": "Normalized fluorescence intensity (QC)", "setting": "[5]; sample CSF7", "result": 6.40}, {"measurement": "Normalized fluorescence intensity (QC)", "setting": "[5]; sample CSF8", "result": 11.08}, {"measurement": "Normalized fluorescence intensity (QC)", "setting": "[5]; sample CSF9", "result": 6.30}, {"measurement": "Normalized fluorescence intensity (QC)", "setting": "[5]; sample CSF10", "result": 5.40}, {"measurement": "Normalized fluorescence intensity (QC)", "setting": "[5]; sample CSF11", "result": 6.70}, {"measurement": "Normalized fluorescence intensity (QC)", "setting": "[5]; sample CSF12", "result": 44.40}, {"measurement": "Normalized fluorescence intensity (QC)", "setting": "[5]; sample CSF13", "result": 3.20}, {"measurement": "Normalized fluorescence intensity (QC)", "setting": "[5]; sample CSF14", "result": 12.30}, {"measurement": "staining of S. cerevisiae strains with α-synuclein (A30P) aggregates", "setting": "[6]", "result": "not stained"}, {"measurement": "Stokes shift upon binding to Aβ42 aggregates", "setting": "Aβ42 aggregates [7]", "result": "~130", "unit": "nm"}, {"measurement": "blue shift of emission maxima in presence of Aβ42 aggregates", "setting": "Aβ42 aggregates [7]; QC 2 μM, Aβ42 aggregates 10 μM", "result": 10, "unit": "nm"}, {"measurement": "absorption maxima in presence of Aβ42 aggregates", "setting": "Aβ42 aggregates [7]; QC 2 μM, Aβ42 aggregates 10 μM, PBS 10 mM", "result": 521, "unit": "nm"}, {"measurement": "quantum yield after binding to Aβ42 aggregates", "setting": "Aβ42 aggregates [7]; [13]", "result": 0.36}, {"measurement": "emission maximum in presence of Aβ42 aggregates", "setting": "Aβ42 aggregates [7]; probe 2 μM", "result": 654, "unit": "nm"}, {"measurement": "fluorescence enhancement in presence of Aβ42 aggregates", "setting": "Aβ42 aggregates [7]; probe 2 μM, PBS buffer", "result": "> 100", "unit": "fold"}, {"measurement": "logP", "setting": "[8]", "result": 2.4}, {"measurement": "Kd", "setting": "Aβ42 aggregates [9]", "result": "82 ± 2.3", "unit": "nM"}, {"measurement": "absorption maxima in presence of Aβ monomers", "setting": "Aβ42 monomers", "result": 521, "unit": "nm"}, {"measurement": "fluorescence enhancement in presence of Aβ monomers", "setting": "Aβ42 monomers; λem=654 nm", "result": "~7", "unit": "fold"}, {"measurement": "fluorescence correlation coefficient with GFP tagged Aβ42 aggregates", "setting": "[10]; QC 5 μM", "result": 83.7, "unit": "%"}, {"measurement": "staining of S. cerevisiae expressing Aβ42 aggregates", "setting": "[10]; QC 5 μM, live cells", "result": "stains S. cerevisiae expressing Aβ42 aggregates selectively"}, {"measurement": "mean Pearson co-localization coefficient", "setting": "[10]; live cells counted (n=50)", "result": 0.837}, {"measurement": "fluorescence enhancement with IAPP aggregates", "setting": "[11]", "result": "negligible enhancement in fluorescence"}, {"measurement": "probe identified intact", "setting": "[12]", "result": "more than 97%"}]}]}
